The supplement of paper PMC10331698
± gives the standard deviation of the averaged measurements.

Tests used:
Assay in all cases: level (log10 ratio to DMSO vehicle control); higher = higher biomarker level / cell amount than vehicle control
Details in all cases: in DMSO
[1] = compound: FC(F)(F)C(F)(C(F)(F)F)C(F)(F)C(F)(F)CC1CO1 [3-(Perfluoro-3-methylbutyl)-1,2-propenoxide]
Protocol: (§1)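 BioMAP Diversity Plus panel of 12 human primary cell co-culture systems (3C, 4H, LPS, SAg, BT, BF4T, BE3C, CASM3C, HDF3CGF, KF3CT, MyoF, Mphg). Compounds were added 1 h before stimulation and left for 24 h (MyoF 48 h; BT 72 h for soluble read-outs or 6 d for IgG). Biomarkers were read by ELISA, cytotoxicity by SRB, PBMC viability and proliferation by Alamar Blue. Each well value was divided by the mean of 8 DMSO control wells on the same plate and log10 transformed; duplicate blinded samples were tested at 4 concentrations.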

Pentafluoropropionamide = compound: NC(=O)C(F)(F)C(F)(F)F [Pentafluoropropionamide]
Protocol: as §1

[2] = compound: O=C(O)C(F)(F)C(F)(F)C(F)(F)C(F)(F)C(F)(F)C(F)(F)C(F)(F)C(F)F [9-H-Perfluorononanoic acid]
Protocol: as §1

[3] = compound: O=C(O)C(F)(F)C(F)(F)C(F)(F)OC(F)(C(F)(F)F)C(F)(F)F [Perfluoro-4-isopropoxybutanoic acid]
Protocol: as §1

[4] = compound: O=C(O)C(F)(F)C(F)(F)OC(F)(F)F [Perfluoro-3-methoxypropanoic acid]
Protocol: as §1

[5] = compound: O=S(=O)(O)C(F)(F)C(F)(F)C(F)(F)C(F)(F)C(F)(F)C(F)(F)F [Perfluorohexanesulfonic acid]
Protocol: as §1

[6] = compound: OCCC(F)(F)C(F)(F)C(F)(F)C(F)(F)C(F)(F)C(F)(F)F [6:2 Fluorotelomer alcohol]
Protocol: as §1

Test System | level (log10) ([1]; 6700 nM) | level (log10) ([1]; 20000 nM) | level (log10) (Pentafluoropropionamide; 6700 nM) | level (log10) (Pentafluoropropionamide; 20000 nM) | level (log10) (Pentafluoropropionamide; 60000 nM) | level (log10) ([2]; 6700 nM) | level (log10) ([2]; 20000 nM) | level (log10) ([2]; 60000 nM) | level (log10) ([3]; 6700 nM) | level (log10) ([3]; 20000 nM) | level (log10) ([3]; 60000 nM) | level (log10) ([4]; 6700 nM) | level (log10) ([4]; 20000 nM) | level (log10) ([4]; 60000 nM) | level (log10) ([5]; 6700 nM) | level (log10) ([5]; 20000 nM) | level (log10) ([5]; 60000 nM) | level (log10) ([6]; 6700 nM) | level (log10) ([6]; 20000 nM)
SAg:SRB | -0.006 ± 0.023 | -0.0025 ± 0.0021 | -0.0005 ± 0.016 | -0.0055 ± 0.0092 | -0.01 ± 0.014 | -0.002 ± 0.025 | -0.003 ± 0.013 | -0.036 ± 0.0071 | -0.001 ± 0.018 | -0.0085 ± 0.016 | -0.018 ± 0.0085 | -0.0025 ± 0.0078 | -0.0005 ± 0.0021 | -0.0045 ± 0.0064 | -0.019 ± 0.0085 | -0.018 ± 0.0042 | -0.033 ± 0.03 | -0.003 ± 0.027 | 0 ± 0.02
BF4T:Keratin 8/18 | 0.01 ± 0.023 | -0.002 ± 0.035 | 0.0075 ± 0.043 | 0.0395 ± 0.05 | 0.0075 ± 0.032 | -0.007 ± 0.052 | 0.0065 ± 0.044 | 0.0005 ± 0.0035 | -0.002 ± 0.0014 | -0.0115 ± 0.0021 | 0.0025 ± 0.011 | -0.002 ± 0.031 | -0.003 ± 0.0085 | 0.016 ± 0.011 | 0.007 ± 0.011 | 0.0075 ± 0.0064 | 0.026 ± 0.02 | 0.0035 ± 0.0035 | 0.005 ± 0.0042
BT:sIL-6 | 0.0275 ± 0.043 | -0.0215 ± 0.005 | 0.055 ± 0.027 | 0.017 ± 0.023 | -0.0095 ± 0.052 | -0.0315 ± 0.0064 | 0.06 ± 0.064 | -0.0215 ± 0.079 | 0.019 ± 0.044 | 0.019 ± 0.025 | 0.0035 ± 0.047 | 0.004 ± 0.11 | 0.0285 ± 0.036 | -0.0045 ± 0.05 | 0.046 ± 0.052 | 0.0105 ± 0.036 | -0.056 ± 0.061 | 0.0115 ± 0.032 | -0.038 ± 0.028
BF4T:uPA | -0.0115 ± 0.0078 | -0.0325 ± 0.0078 | -0.013 ± 0.0085 | -0.0075 ± 0.0078 | 0.0045 ± 0.018 | -0.0085 ± 0.016 | -0.0195 ± 0.012 | 0.001 ± 0.013 | -0.0085 ± 0.00071 | -0.02 ± 0.0085 | 0.0085 ± 0.03 | -0.009 ± 0.021 | -0.0015 ± 0.012 | 0.0155 ± 0.042 | -0.002 ± 0.027 | -0.007 ± 0.02 | -0.0035 ± 0.037 | -0.0185 ± 0.012 | -0.006 ± 0.011
LPS:CCL2/MCP-1 | -0.01 ± 0.0057 | 0.005 ± 0.024 | -0.0035 ± 0.011 | -0.017 ± 0.0028 | 0.008 ± 0.04 | -0.0165 ± 0.005 | -0.0055 ± 0.0021 | 0.0405 ± 0.025 | -0.0045 ± 0.016 | 0.022 ± 0.025 | 0.0725 ± 0.0035 | -0.005 ± 0.0057 | 0.003 ± 0.0071 | 0.0055 ± 0.03 | 0.0045 ± 0.0064 | 0.0045 ± 0.0064 | 0.028 ± 0.024 | 0.002 ± 0.0085 | -0.022 ± 0.0071
BF4T:CD106/VCAM-1 | 0.0025 ± 0.03 | 0.0425 ± 0.032 | -0.001 ± 0.018 | -0.0045 ± 0.0021 | -0.016 ± 0.0071 | -0.0885 ± 0.049 | -0.103 ± 0.058 | -0.0625 ± 0.021 | -0.042 | -0.035 ± 0.02 | -0.0065 ± 0.037 | -0.025 ± 0.031 | -0.029 ± 0.011 | 0.022 ± 0.014 | -0.022 ± 0.024 | -0.019 ± 0.0014 | -0.0155 ± 0.033 | -0.0195 ± 0.042 | -0.0525 ± 0.028
BF4T:CD54/ICAM-1 | 0.0005 ± 0.018 | -0.011 ± 0.021 | -0.021 ± 0.018 | -0.007 ± 0.014 | -0.019 ± 0.017 | -0.0775 ± 0.0092 | -0.088 ± 0.0028 | -0.0795 ± 0.00071 | -0.0095 ± 0.021 | -0.007 ± 0.0057 | -0.0115 ± 0.013 | 0.0165 ± 0.0064 | -0.0085 ± 0.011 | -0.0015 ± 0.0035 | 0.0045 ± 0.00071 | -0.005 ± 0.011 | -0.022 ± 0.0099 | -0.004 ± 0.0014 | -0.0025 ± 0.011
BT:sIL-17A | 0.135 ± 0.0092 | -0.0585 ± 0.032 | 0.0075 ± 0.1 | -0.031 ± 0.051 | 0.0105 ± 0.015 | 0.0095 ± 0.087 | -0.02 ± 0.024 | -0.126 ± 0.0099 | 0.027 ± 0.05 | 0.052 ± 0.096 | -0.0105 ± 0.21 | 0.035 ± 0.27 | -0.0495 ± 0.076 | 0.0575 ± 0.12 | 0.135 ± 0.11 | -0.0225 ± 0.25 | -0.133 | 0.0375 ± 0.015 | -0.0005 ± 0.11
LPS:SRB | 0 ± 0.0042 | -0.0035 ± 0.005 | 0 ± 0.014 | -0.006 ± 0.0014 | -0.0105 ± 0.00071 | -0.005 ± 0.016 | -0.01 ± 0.014 | -0.022 ± 0.0099 | 0.0075 ± 0.015 | 0.018 ± 0.0099 | 0.0215 ± 0.016 | 0.006 ± 0.0085 | 0.011 ± 0.0099 | 0.026 ± 0.0028 | -0.0075 ± 0.013 | -0.0115 ± 0.00071 | -0.0175 ± 0.018 | 0.0095 ± 0.0078 | 0.004 ± 0.0071
BT:sIL-17F | 0.0485 ± 0.028 | -0.0345 ± 0.093 | -0.02 ± 0.085 | -0.03 | 0.0275 ± 0.0064 | 0.0055 ± 0.0064 | 0.0945 ± 0.035 | 0.031 ± 0.0085 | -0.0935 ± 0.005 | -0.092 ± 0.04 | -0.063 ± 0.045 | -0.161 ± 0.067 | -0.033 ± 0.052 | -0.0115 ± 0.011 | 0.0235 ± 0.09 | 0.0375 ± 0.018 | -0.063 | -0.087 ± 0.17 | -0.146 ± 0.18
BF4T:CCL26/Eotaxin-3 | 0.012 ± 0.028 | -0.0095 ± 0.016 | -0.009 ± 0.017 | -0.0155 ± 0.023 | -0.0135 ± 0.011 | -0.174 ± 0.028 | -0.198 ± 0.049 | -0.147 ± 0.0071 | -0.0055 ± 0.09 | -0.0185 ± 0.069 | -0.0105 ± 0.016 | -0.033 ± 0.0085 | -0.031 ± 0.016 | 0.02 ± 0.057 | 0.003 ± 0.0099 | -0.001 ± 0.02 | -0.0165 ± 0.037 | -0.0055 ± 0.15 | -0.023 ± 0.081
BF4T:MMP-1 | -0.0115 ± 0.047 | 0.02 ± 0.067 | -0.005 ± 0.0099 | -0.0105 ± 0.0078 | 0.012 ± 0.016 | 0.005 ± 0.021 | -0.0075 ± 0.039 | 0.0925 ± 0.00071 | -0.0035 ± 0.022 | 0.0155 ± 0.026 | 0.027 ± 0.03 | 0.0025 ± 0.0021 | 0.008 ± 0.0042 | 0.0205 ± 0.023 | 0.0035 ± 0.0021 | -0.0025 ± 0.023 | 0.0255 ± 0.0035 | 0.0065 ± 0.005 | 0.014 ± 0.021
BE3C:HLA-DR | -0.0075 ± 0.005 | -0.003 ± 0.0085 | -0.0115 ± 0.0078 | 0.0045 ± 0.0064 | 0.0055 ± 0.026 | -0.102 ± 0.042 | -0.14 ± 0.052 | -0.15 ± 0.0014 | -0.0045 ± 0.025 | -0.0045 ± 0.016 | 0.0105 ± 0.011 | -0.014 ± 0.0014 | 0.003 ± 0.023 | -0.0035 ± 0.033 | -0.014 ± 0.031 | -0.0285 ± 0.013 | -0.0585 ± 0.028 | 0.003 | 0.005 ± 0.02
4H:CCL2/MCP-1 | -0.038 ± 0.013 | 0.001 ± 0.042 | -0.028 ± 0.0042 | -0.0445 ± 0.03 | 0 ± 0.075 | -0.028 ± 0.013 | -0.059 ± 0.017 | -0.0405 ± 0.081 | 0 | -0.0255 ± 0.005 | 0.0155 ± 0.059 | -0.0045 ± 0.039 | -0.0095 ± 0.0092 | 0.003 | -0.0205 ± 0.044 | -0.049 ± 0.031 | -0.0195 ± 0.054 | 0.009 ± 0.0085 | -0.0065 ± 0.018
3C:CXCL8/IL-8 | -0.0065 ± 0.018 | 0.008 ± 0.014 | -0.026 ± 0.013 | -0.028 ± 0.0099 | 0.002 ± 0.044 | -0.0115 ± 0.011 | 0.015 ± 0.0057 | 0.0765 ± 0.005 | -0.0055 ± 0.015 | 0.007 ± 0.013 | 0.043 ± 0.034 | -0.017 ± 0.051 | -0.0255 ± 0.021 | 0.005 ± 0.037 | -0.004 ± 0.014 | 0.031 | 0.069 ± 0.024 | -0.001 ± 0.0085 | -0.0105 ± 0.0092
4H:CCL26/Eotaxin-3 | -0.002 ± 0.018 | 0.013 ± 0.013 | -0.001 ± 0.013 | -0.0015 ± 0.013 | 0.0065 ± 0.026 | -0.002 ± 0.0085 | -0.0035 ± 0.013 | -0.0155 ± 0.0064 | 0.0175 ± 0.042 | -0.023 ± 0.0057 | -0.0135 ± 0.00071 | -0.013 ± 0.013 | -0.0085 ± 0.019 | 0.021 ± 0.0099 | -0.0105 ± 0.00071 | -0.001 ± 0.02 | -0.047 ± 0.018 | 0.0545 ± 0.013 | 0.016 ± 0.04
